From JP2017105729A, “ミトコンドリア病の治療剤” (Tohoku University NUC, priority 2015, dated 2017)

Columns and labels:
[1] = tested on: Leber disease patient-derived fibroblasts [Leber病患者由来線維芽細胞]; assay: Suppression of oxidative-stress (BSO) induced cell death of Leber disease patient fibroblasts: cell viability (MTT assay, Cell Counting Kit-8); format: cell-based; conditions: for minimal effective concentration: Fibroblast, BSO 100 μM 24 h, then compound (0.1, 0.3, 1, 3, 10 μM) 48 h, n=4, Fig. 1B, read-out: concentration at which the decrease in cell viability is suppressed
[2] = tested on: mitochondrial disease [ミトコンドリア病]; conditions: reported in Patent Literature 2; cited from earlier work
[3] = tested on: erythropoietin [エリスロポエチン]; conditions: reported in Patent Literature 2; cited from earlier work
[4] = tested on: erythropoietin, human liver cancer cell line Hep3B [エリスロポエチン産生ヒト肝臓癌細胞株Hep3B]; assay: Erythropoietin production in Hep3B cells in the presence of TNFα (ELISA); format: cell-based; conditions: compound 3 μM with TNFα 220 μg/mL, 24 h, 20% O2; relative to DMSO; Fig. 2
[5] = tested on: Leber disease patient-derived fibroblasts [Leber病患者由来線維芽細胞]; assay: Suppression of cytotoxicity in BSO-treated Leber disease patient fibroblasts: released LDH activity (Cytotoxicity LDH Assay Kit-WST); format: cell-based; conditions: BSO 100 μM 24 h, then compound (0.1, 0.3, 1, 3, 10 μM) 48 h, n=4; LDH release; Fig. 1C
[6] = tested on: mitochondrial encephalomyopathy patients [ミトコンドリア脳筋症患者]; conditions: cited from earlier work

CCCCS(=N)(=O)CC[C@H](N)C(=O)O (stereo partly drawn) [BSO, L-Buthionine sulphoximine]
cell viability ([1]; BSO 100 μM (glutathione synthesis inhibitor) alone, Fig. 1A): 細胞生存率が低下する

O=C(CC(C(=O)O)c1c[nH]c2ccccc12)c1ccc(F)cc1F (centres unmarked) [4−(2,4−ジフルオロフェニル)−2−(1H−インドール−3−イル)−4−オキソ−ブタン酸]
therapeutic effect on mitochondrial disease [2]: ミトコンドリア病の治療効果 | effect of enhancing erythropoietin expression / promoting erythropoietin production [3]: エリスロポエチン発現増強効果

O=C(CC(C(=O)O)c1c[nH]c2cccc(Cl)c12)c1ccc(F)cc1F (centres unmarked) [本件化合物#5, 2−(4−クロロ−1H−インドール−3−イル)−4−(2,4−ジフルオロフェニル)−4−オキソブタン酸]
erythropoietin expression level [4]: 増加する

O=C(CC(C(=O)O)c1c[nH]c2ccccc12)c1ccc(F)cc1 (centres unmarked) [比較例化合物#4, 4−(4−フルオロフェニル)−2−(1H−インドール−3−イル)−4−オキソ−ブタン酸]
therapeutic effect on mitochondrial disease [2]: ミトコンドリア病の治療効果 | concentration at which the cytotoxicity level is lowered [5]: ≥ 10 µM | minimal effective concentration [1]: ≥ 10 µM | effect of enhancing erythropoietin expression / promoting erythropoietin production [3]: エリスロポエチン産生の促進効果

CC1=NN(c2ccccc2)C(=O)C1 [エダラボン, 3−メチル−1−フェニル−2−ピラゾリン−5−オン]
effect of stopping enlargement of infarct [6]: 梗塞の拡大を停止する効果 | effect of suppressing edema [6]: 浮腫を抑制する効果

O=C(CC(C(=O)O)c1c[nH]c2cc(F)ccc12)c1ccc(F)cc1F (centres unmarked) [本件化合物#1, 4−(2,4−ジフルオロフェニル)−2−(6−フルオロ−1H−インドール−3−イル)−4−オキソブタン酸]
erythropoietin expression level [4]: 増加する

Cc1ccc2[nH]cc(C(CC(=O)c3ccc(F)cc3F)C(=O)O)c2c1 (centres unmarked) [本件化合物#6, 4−(2,4−ジフルオロフェニル)−2−(5−メチル−1H−インドール−3−イル)−4−オキソブタン酸]
concentration at which the cytotoxicity level is lowered [5]: ≥ 1 µM | minimal effective concentration [1]: ≥ 1 µM | erythropoietin expression level [4]: 増加する
